Paper PMC6128596, “Cyclooxygenase pathway mediates the inhibition of Na-glutamine co-transporter B0AT1 in rabbit villus cells during chronic intestinal inflammation” (PLoS ONE, 2018)

System: T1, B0AT1
T1 construct: gene SLC6A19; native full-length transporter in brush border membrane vesicles from rabbit ileal villus cells; not purified
Assay: Na-dependent [3H]glutamine uptake into villus BBMV, […] s, rapid filtration
Type: biochemical, Oryctolagus cuniculus
Conditions: control (normal) rabbits; 0.2-100 mM glutamine; 100 mM NaCl versus choline chloride; pH 7.5; 3H-glutamine tracer

Km: 24.6 ± 1.8 mM
Structure (SMILES): NC(=O)CC[C@H](N)C(=O)O [glutamine]
